Legend:
Assay type in all cases: cell-based
[1] = target: T1, CCCTC-binding factor (CTCF) (Homo sapiens, UniProt P49711); test: Reactive cysteine identification by ChESS fractionation and mass spectrometry in THP-1 cells; settings: 12.5 μM, 4 hours, mass spectrometry
T1 construct: endogenous in cells; host or cells: THP-1
T1 sequence (P49711 1-727): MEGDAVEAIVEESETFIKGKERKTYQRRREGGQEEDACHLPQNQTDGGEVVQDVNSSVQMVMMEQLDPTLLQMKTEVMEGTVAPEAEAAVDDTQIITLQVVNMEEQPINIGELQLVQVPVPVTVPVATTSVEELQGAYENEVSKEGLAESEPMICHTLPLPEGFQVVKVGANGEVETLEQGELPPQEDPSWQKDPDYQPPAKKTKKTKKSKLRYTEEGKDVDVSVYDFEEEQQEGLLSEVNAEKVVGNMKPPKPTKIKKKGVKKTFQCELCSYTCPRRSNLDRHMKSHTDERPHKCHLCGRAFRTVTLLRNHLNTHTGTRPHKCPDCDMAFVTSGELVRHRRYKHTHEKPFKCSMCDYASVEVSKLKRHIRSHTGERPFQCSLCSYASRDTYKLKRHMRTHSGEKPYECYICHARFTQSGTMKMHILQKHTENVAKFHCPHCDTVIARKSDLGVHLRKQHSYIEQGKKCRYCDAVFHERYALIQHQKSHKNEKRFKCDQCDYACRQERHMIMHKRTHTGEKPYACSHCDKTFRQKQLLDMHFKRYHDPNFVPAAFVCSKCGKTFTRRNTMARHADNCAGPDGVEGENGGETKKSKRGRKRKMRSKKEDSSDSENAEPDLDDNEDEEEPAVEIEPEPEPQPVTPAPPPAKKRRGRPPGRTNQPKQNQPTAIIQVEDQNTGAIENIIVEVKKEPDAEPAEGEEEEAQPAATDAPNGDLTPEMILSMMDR
Method: (§1) Five million cells, from leukemia, myeloma, or other cancer cell cultures, were treated with 12.5 μM n-methyl iodoacetamide (NM-IAA) in triplicate for 4 hours. The cells were then washed with phosphate-buffered saline (PBS) and fractionated using chromatin enriching salt separation (ChESS). ChESS used four sequential buffer washes of increasing ionic strength to separate the cellular proteome into cytosolic-, nucleoplasm-, euchromatin-, and heterochromatin-enriched fractions, as outlined in FIG. 1. Each of the fractions was digested using trypsin and analyzed using a data-dependent acquisition (DDA) strategy on an Evosep One-ThermoFisher Exploris 480 orbitrap platform. The results were analyzed using the Comet search tool with the mass of the NM-IAA addition as a variable modification on cysteine residues, then filtered at a 1% false discovery rate with Peptide Prophet or mokapot. DDA results were quantified with FlashLFQ. Each sample was also acquired using a data independent acquisition (DIA) approach on the same mass spectrometer in order to accurately quantify the peptides and proteins in each sample. DIA samples were analyzed using EncyclopeDIA with a spectral library that was generated using the results from DDA analysis and Comet search results or using a predicted spectral library from Prosit.
THP-1 acute monocytic leukemia cells were grown to 95% viability. […]

CTCF = target: T2, CTCF (Homo sapiens, UniProt P49711); test: Movement of transcription factor between ChESS fractions after NM-IAA treatment; settings: ChESS fractionation after NM-IAA treatment
T2 construct: endogenous in cells; host or cells: THP-1
T2 sequence (P49711 1-727): T1 sequence (P49711 1-727)
Method: as §1, with “Prosit. […]” for “Prosit.”

[2] = target: T3, poly(ADP-ribose) polymerase-1 (PARP1) (Homo sapiens, UniProt P09874); test: Reactive cysteine identification with Biotin-IA in THP-1 cells (mass spectrum); settings: 10 μM
T3 construct: endogenous in cells; host or cells: THP-1
T3 sequence (P09874 whole entry): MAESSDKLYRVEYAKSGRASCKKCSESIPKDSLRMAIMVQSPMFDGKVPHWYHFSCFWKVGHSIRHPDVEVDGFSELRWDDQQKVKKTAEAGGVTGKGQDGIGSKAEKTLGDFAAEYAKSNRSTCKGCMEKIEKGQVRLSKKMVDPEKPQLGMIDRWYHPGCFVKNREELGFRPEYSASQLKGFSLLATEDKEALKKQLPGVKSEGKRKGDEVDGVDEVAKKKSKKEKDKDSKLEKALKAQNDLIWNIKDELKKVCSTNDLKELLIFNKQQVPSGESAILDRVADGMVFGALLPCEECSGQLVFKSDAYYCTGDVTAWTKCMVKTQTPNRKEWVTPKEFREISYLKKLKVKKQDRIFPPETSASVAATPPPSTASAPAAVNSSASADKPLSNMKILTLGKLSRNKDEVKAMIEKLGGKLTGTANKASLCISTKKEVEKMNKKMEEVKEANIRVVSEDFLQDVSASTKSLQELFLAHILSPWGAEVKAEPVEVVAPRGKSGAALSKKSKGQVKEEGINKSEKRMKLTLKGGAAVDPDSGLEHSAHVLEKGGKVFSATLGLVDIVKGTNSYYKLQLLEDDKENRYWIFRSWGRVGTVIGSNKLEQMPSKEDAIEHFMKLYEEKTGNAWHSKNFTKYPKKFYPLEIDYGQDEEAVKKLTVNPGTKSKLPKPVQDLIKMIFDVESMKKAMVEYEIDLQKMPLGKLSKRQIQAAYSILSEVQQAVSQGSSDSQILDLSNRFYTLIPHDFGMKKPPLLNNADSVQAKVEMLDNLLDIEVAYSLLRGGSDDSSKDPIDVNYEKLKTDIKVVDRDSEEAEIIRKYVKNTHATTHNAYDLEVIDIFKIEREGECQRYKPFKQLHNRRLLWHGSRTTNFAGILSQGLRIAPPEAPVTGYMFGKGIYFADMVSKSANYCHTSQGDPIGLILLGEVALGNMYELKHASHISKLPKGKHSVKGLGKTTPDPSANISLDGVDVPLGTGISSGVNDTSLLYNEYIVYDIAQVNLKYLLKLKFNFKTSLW
Method: The mass shift associated with NM-IAA is 71.03 Dalton (Da). […] THP-1 cells were treated with 10 μM biotin polyethyleneoxide iodoacetamide (Biotin-IA). Biotin-IA reacted with a cysteine in the peptide SDAYYCTGDVTAWTK (SEQ ID NO: 2) from the poly(ADP-ribose) polymerase-1 (PARP1) protein.

Molecule | modification of the cysteine in CTCF peptide YHDPNFVPAAFVCSK (SEQ ID NO: 1) [1] | CTCF localisation in ChESS fractions after NM-IAA modification (CTCF) | reaction with a cysteine in PARP1 peptide SDAYYCTGDVTAWTK (SEQ ID NO: 2) [2]
CNC(=O)CI [NM-IAA, n-methyl iodoacetamide] | modified | ejected from heterochromatin and observed in the nucleoplasm fraction | –
biotin polyethyleneoxide iodoacetamide [Biotin-IA] | – | – | reacted
